Experimental data from US7608640B2, “Glycine betaine and its use” (priority 2001, dated 2009).
Values belong to the compound of their own block, whether it stands above or below them.

Legend:
coagulation factors = test: Biological balance (Quick time, ACT, fibrinogen, α2AP, AT III); format: in vivo, rat
platelet aggregation = test: Whole blood platelet aggregation ex vivo (aggregometer); format: in vivo, rat; conditions: after laser firings
Procedure: The aggregation is made in accordance to the methods of Cardinal & Flower. Pharmacol. Method. 1980, and to American Journal of Clinical Pathology, 1989; 92: 676-679, Sureney. J D. Whole Blood aggregometry. After a keeping period of 8 days, the rats are subjected to a fasting for 12 hours. […] The rats are then anaesthetised with sodium Thiopental administered at a dose of 200 mg/Kg and the blood samples are taken by intracardiac puncture on a trisodium citrate solution (1 volume of solution at 3.8% citrate for 9 volumes of blood).

[1] = tested on: arterial thrombosis induced by laser beam in the mesenteric microcirculation of the rat; test: Laser-induced thrombosis in the mesenteric microcirculation; format: in vivo
From the text: A/Principle of Laser-induced Thrombosis (Seiffge D. et al., 1989; Weichter W. et al., 1983).
In this model, lesion of the vascular wall is induced by a laser beam. This beam causes a limited lesion of the vascular endothelium (only 1 to 2 cells are destroyed). This laying bare of the sub-endothelium, which is a thrombogenetic surface, results in the adherence of platelets via […]. This adherence of platelets is followed by the activation thereof. They form pseudopods and secrete the content of their granules. This activation results in the appearance of glycoproteins IIb-IIIa which are necessary for the aggregation of the platelets between them. This lesion is induced in the mesenteric microcirculation of the rat. It is immediately followed by the formation of a thrombus (in a few seconds). This thrombus, which rapidly enlarges under the influence of the flow of blood, embolises before being formed again.
By this manes, the assessment of the effect of glycine betaine was conducted pharmacologically in conjunction with the study of two active molecules used as a reference; namely acetylsalicylic acid and heparin (of low molecular weight). The assessment also involved the activity of glycine betaine in relation to the prothrombotic effects induced by contrasting products.
Male Wistar rats were used for these tests. They weighed between 200 and 250 grams. After an 8-day stabilisation period, the rats were subjected to fasting for 12 hours. They were then anaesthetised, glycine betaine was administered subcutaneously, and the mesentery (laser) or vena cava (stasis) was opened at the end of the experiments.

blood cells = test: Blood cell counts; format: in vivo, rat
bleeding time in rats = test: Induced haemorrhagic (bleeding) time, tail cut; format: in vivo, rat
Procedure: Induced Haemorrahgic Time IHT
(E. Dejana. Bleeding time in rats. Thrombosis. Rech. 1982) Blood samples are made before the test. The tail of anaesthetised rat, is dipped for 5 minutes in a water bath at 37° C. so as to provoke a dilatation of the peripheral vessels which are removed and cut at the end, the chronometer being started. The IHT is defined as being the time period comprised between the cutting of end tail and the end of the haemorrhage or bleeding. The end of haemorrhage is defined as the time where the last drop of blood is removed from the tail and no other drop is seen for 180 seconds. […]

[2] = rat, glycine betaine 5 mg/kg, acetylsalicylic acid 100 mg/kg, heparin 2 mg/kg
[3] = rat, after laser firings, glycine betaine 5 mg/kg, acetylsalicylic acid 100 mg/kg, heparin 2 mg/kg
[4] = contrasting products alone or with glycine betaine 5 mg/kg
[5] = after laser firings and administration of contrasting products, alone or with glycine betaine 5 mg/kg

- Number of platelets (blood cells; [2]): 855.33 ± 63.17 10^9
- Number of red corpuscles (blood cells; [2]): 6.15 ± 0.31 10^12
- Number of white corpuscles (blood cells; [2]): 4.33 ± 1.00 10^9
- Bleeding time (bleeding time in rats; [2]): 276.67 ± 20.82 s
Structure (SMILES): CC(=O)Oc1ccccc1C(=O)O [Acetylsalicylic acid]
- ACT (Activated cephaline time) (coagulation factors; [2]): 27.26 ± 1.1 s
- AT III (Antithrombin III) (coagulation factors; [2]): 85.33 ± 3.51%
- Fibrinogen (coagulation factors; [2]): 2.19 ± 0.33 g/L
- QT (Quick time) (coagulation factors; [2]): 18.33 ± 2.08 s
- α2AP (Alpha,2-antiplasmin) (coagulation factors; [2]): 29.36 ± 0.92%
- Amplitude (platelet aggregation) (platelet aggregation; [2]): 2.33 ± 2.08 ohms
- Velocity (platelet aggregation) (platelet aggregation; [2]): 2 ± 1 ohms/min
- Duration of embolisation [1, 3]: 0.33 ± 0.58 min
- Number of emboles or embolies [1, 3]: 1 ± 1

- Number of platelets (blood cells; [4]): 585.67 ± 23.54 10^9
- IBD (induced bleeding time) (bleeding time in rats; [4]): 128 ± 7.64 s
Structure (SMILES): C[C@H](O)C(=O)Nc1c(I)c(C(=O)NC(CO)CO)c(I)c(C(=O)NC(CO)CO)c1I [Iopamidol ®, Iopamidol]
- ACT (Activated cephaline time) (coagulation factors; [4]): 41.33 ± 0.8 s
- AT III (Antithrombin III) (coagulation factors; [4]): 70.6 ± 1.51%
- Fibrinogen (coagulation factors; [4]): 1.5 ± 0.8 g/L
- QT (Quick time) (coagulation factors; [4]): 28.1 ± 0.75 s
- α2AP (Alpha,2-antiplasmin) (coagulation factors; [4]): 25.23 ± 0.95%
- Amplitude (platelet aggregation) (platelet aggregation; [4]): 15 ± 2.64 ohm
- Velocity (platelet aggregation) (platelet aggregation; [4]): 12.33 ± 0.50 ohm/min
- Duration of embolisation [1, 5]: 6.33 ± 0.52 min
- Number of emboles [1, 5]: 11.67 ± 0.50
